Data: PMC11758220, “Identification of a Privileged Scaffold for Inhibition of Sterol Transport Proteins through the Synthesis and Ring Distortion of Diverse, Pseudo-Natural Products” (ACS Central Science, 2025)

Biological target: T1, Aster-A (Homo sapiens, UniProt Q96CP6)
T1 construct: endogenous in cells; host or cells: Jurkat cells
T1 sequence (Q96CP6 1-724): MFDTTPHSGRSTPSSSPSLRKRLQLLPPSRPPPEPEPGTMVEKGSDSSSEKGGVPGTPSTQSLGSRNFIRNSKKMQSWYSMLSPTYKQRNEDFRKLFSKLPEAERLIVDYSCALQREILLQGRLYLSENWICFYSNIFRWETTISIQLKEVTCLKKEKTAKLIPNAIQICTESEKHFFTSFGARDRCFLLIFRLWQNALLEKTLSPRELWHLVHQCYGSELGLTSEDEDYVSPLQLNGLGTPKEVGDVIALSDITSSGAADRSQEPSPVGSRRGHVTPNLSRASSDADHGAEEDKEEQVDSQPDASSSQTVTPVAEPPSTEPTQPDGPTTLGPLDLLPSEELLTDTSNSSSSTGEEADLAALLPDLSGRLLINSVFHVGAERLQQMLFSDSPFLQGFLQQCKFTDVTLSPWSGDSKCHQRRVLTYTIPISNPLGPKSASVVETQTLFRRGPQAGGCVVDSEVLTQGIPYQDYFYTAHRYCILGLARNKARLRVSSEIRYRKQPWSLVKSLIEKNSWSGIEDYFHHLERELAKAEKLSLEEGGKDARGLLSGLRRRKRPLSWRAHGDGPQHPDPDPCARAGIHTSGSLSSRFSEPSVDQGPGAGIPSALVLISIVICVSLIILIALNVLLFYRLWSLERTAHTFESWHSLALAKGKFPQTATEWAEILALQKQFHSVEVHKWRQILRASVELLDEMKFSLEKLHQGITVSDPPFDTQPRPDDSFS
Test: In-cell isothermal shift assay in intact Jurkat cells
Format: cell-based
Settings: 10 μM, 1 h, heated to 50 °C, Western blot
Method: Jurkat cells were cultured in RPMI 1640 GlutaMAX supplemented with 10% fetal bovine serum and 1% penicillin-streptomycin at 37 °C, 5% CO2.
In-cell thermal stability assay
To a 15 mL falcon tube were added 3 × 10^5 Jurkat cells in media and centrifuged at 300 × g for three minutes. The supernatant was aspirated, and the cells were resuspended in 4 mL media containing 0.1% DMSO. The cells were gently vortexed to avoid pelleting at 30 minutes intervals. After 1 h incubation at 37 °C and 5% CO2, the cells were washed twice with PBS and collected in 0.9 mL PBS and divided into eight aliquots, each 100 µL in PCR tubes. The aliquots were individually heated at different temperatures (Doppio 2 × 48 well Thermal cycler, VWR). After the heat treatment, 10 µL of PBS containing 4.4 %v/v NP-40 was added to each sample and cells were lysed by freeze-thaw four times. The cell lysates were transferred to 1.5 mL Eppendorf tubes and cen trifuged (Micro Star 30, VWR) at 25000 × g, 4 °C for 25 minutes. The cleared supernatants were collected and further analy sed […]
In-cell isothermal shift assay
To eight 15 mL falcon tubes were added 3 × 10^5 Jurkat cells in 1 mL of media per tube and incubated with indicated test compounds for one hour at 37 °C and 5% CO2. The cells were gently vortexed to avoid pelleting at 30 minutes intervals. After one hour incubation at 37 °C and 5% CO2, the cells were centrifuged at 300 × g for three minutes, washed once with PBS and centrifuged again at 300 × g for three minutes. The cells were then resuspended in 50 µL of PBS in PCR tubes. The samples were then heated at the given temperature (Eppendorf Mastercycler ep Gradie nt S). After the heat treatment, 5 µL of PBS containing 4.4 %v/v NP-40 were added to each sample and cells lysed by freeze-thaw four times. Finally, the cell lysates were completely transferred to 1.5 mL Eppendorf tubes and centrifuged (Micro Star 30, VMR) at 25000 × g, 4 °C for 25 minutes. The cleared supernatants were collected and further analysed by western blotting.
Sodium dodecyl sulfate-polyacrylamide gel electrophoresis and western blotting Sodium dodecyl sulfate-polyacrylamide gel electrophoresis (SDS-PAGE) experiments were carried out using 4-15% precast polyacrylamide gels (Bio-Rad) and run at a constant voltage of 100 V for ten minutes followed by 120 V for one hour. Semidry transfer onto a 0.2 µm nitrocellulose membrane was performed using Bio-Rad Trans-Blot Turbo Transfer System at 1.3 A for seven minutes. For chemiluminescent detection, membranes were blocked in 5% milk in TBST (tris -buffered saline with Tween; 137 mM NaCl, 19 mM Tris-base, 2.7 mM KCl and 0.1 %v/v Tween-20, blocking buffer) for one houre at room temperature. […]
Western blot quantification was performed using LI-COR Image Studio Lite. […]

Row | SMILES | Stabilization of Aster-A toward thermal unfolding in intact Jurkat cells
1 | CC12CCC3CC1CCC21C(=Nc2ccc(N4CCOCC4)cc21)O3 (single isomer, unassigned; (-)) [(−)-19a] | showed stabilization of Aster-A
2 | CC(C)Oc1ccc(C(=O)Nc2nc3c(s2)CN(C(=O)OC(C)(C)C)CC3)cc1 [Autogramin-2, reference compound] | showed stabilization of Aster-A
3 | C[C@]12CC[C@@H]3C[C@H]1CC[C@@]21C(=Nc2ccc(C(F)(F)F)cc21)O3 [Compound 15g] | showed stabilization of Aster-A
4 | CC(C)(C)OC(=O)N1CCN(c2ccc3c(c2)C24CCC5CC(CCC52C)OC4=N3)CC1 (stereo not shown) [Compound 19e] | increased stabilization of Aster-A in intact cells
